Data taken from US11203577B2, “Sulfonyl-structure-containing triazinone derivatives, their preparation methods and their uses in insect killing and/or bacterium killing” (Nankai University, priority 2017, dated 2021).
Where two headings read alike, the source gives them in different places.

Assays:
Watermelon anthracnose = experiment: In vitro fungicidal activity, PDA colony diameter; assay type: cell-based; settings: 50 mg/kg, inhibition of colony diameter; read-out: Fungicidal activity (%) Watermelon anthracnose
Maize borers = experiment: Test of insecticidal activity against maize borers (leaf immersion); settings: read-out: Mortalities (%) Maize borers
Cotton bollworms = experiment: Test of insecticidal activity against cotton bollworms (pesticide mixed into feedstuff); settings: read-out: Mortalities (%) Cotton bollworms
Experimental: Method of testing against cotton bollworms: the pesticide is mixed into the feedstuff, i.e., 3 mL prepared solution is added into about 27 g freshly prepared feedstuff; thus, required concentration is obtained by diluting by 10 times.

[1] = test system: Cercospora brown spot of peanut; experiment: In vitro fungicidal activity, PDA colony diameter; assay type: cell-based; settings: 96 h, 50 mg/kg, inhibition of colony diameter, read-out: Fungicidal activity (%) Cercospora brown spot of peanut
Tomato early blight = experiment: In vitro fungicidal activity, PDA colony diameter; assay type: cell-based, Alternaria solani; settings: 50 mg/kg, inhibition of colony diameter; read-out: Fungicidal activity (%) Tomato early blight
Wheat head blight = experiment: whole plant or invertebrate; assay type: cell-based; settings: Triticum aestivum, read-out: Fungicidal activity (%) Wheat head blight
Armyworms = experiment: Test of insecticidal activity against armyworms (leaf immersion); settings: 600 mg/kg, 3-4 days
Rice sheath blight = experiment: In vitro fungicidal activity, PDA colony diameter; assay type: cell-based; settings: 50 mg/kg, inhibition of colony diameter; read-out: Fungicidal activity (%) Rice sheath blight
Wheat sheath blight = experiment: In vitro fungicidal activity, PDA colony diameter; assay type: cell-based; settings: 50 mg/kg, inhibition of colony diameter; read-out: Fungicidal activity (%) Wheat sheath blight
Potato late blight = experiment: microbe, parasite or virus in culture; assay type: cell-based; settings: Phytophthora infestans, 96 h, read-out: Fungicidal activity (%) Potato late blight
[2] = test system: bean aphides (Aphis laburni Kaltenbach); experiment: Test of insecticidal activity against aphides (leaf immersion, checked after 96 h); settings: for insecticidal activity against aphides compared with pymetrozine: 5 mg/kg; for mortality at 5 mg/kg / mortality at 10 mg/kg / mortality at 100 mg/kg / mortality at 600 mg/kg / mortality at 2.5 mg/kg: Aphis, 96 h, read-out: Mortalities (%) against aphides
Apple ring rot = experiment: In vitro fungicidal activity, PDA colony diameter; assay type: cell-based; settings: inhibition of colony diameter
Experimental: (§1) Here, the test is described in an example of Alternaria solani; it can be replaced by other fungi.
(§2) In vitro testing method: Alternaria solani is inoculated to a PDA culture medium and cultured for 7 days, a fungus dish with a diameter of […] is prepared on the periphery of the colony with a punch and inoculated to a PDA culture medium that contains pesticide at a concentration of 50 mg/kg and a PDA culture medium that doesn't contain the pesticide, and are cultured for 4 days respectively; then, the colony diameters are measured, and the inhibition percentages of the pesticides are calculated by comparing with the control sample.

[3] = test system: Capsicum phytophthora blight; experiment: In vitro fungicidal activity, PDA colony diameter; assay type: cell-based; settings: 96 h
Experimental: as §1, §2

Sclerotinia rot of colza = experiment: In vitro fungicidal activity, PDA colony diameter; assay type: cell-based; settings: 96 h, 50 mg/kg, inhibition of colony diameter, read-out: Fungicidal activity (%) Sclerotinia rot of colza
[4] = test system: Corn southern leaf blight; experiment: In vitro fungicidal activity, PDA colony diameter; assay type: cell-based; settings: 50 mg/kg, inhibition of colony diameter; read-out: Fungicidal activity (%) Corn southern leaf blight
Cucumber fusarium wilt = experiment: In vitro fungicidal activity, PDA colony diameter; assay type: cell-based; settings: 96 h, 50 mg/kg, inhibition of colony diameter, read-out: Fungicidal activity (%) Cucumber fusarium wilt
Rice bakanae disease = experiment: In vitro fungicidal activity, PDA colony diameter; assay type: cell-based; settings: read-out: Fungicidal activity (%) Rice bakanae disease
[5] = test system: mosquito larvae (Culer pipiens pallens); experiment: Test of insecticidal activity against mosquito larvae (checked after 24 h); settings: 24 h, read-out: Mortalities (%) against mosquito larvae
Experimental: Method of testing against mosquito larvae: the tested mosquito larvae are Culer pipiens pallens, a normal colony fed indoor. About 5 mg compound to be tested is weighed and loaded into a penicillin vial, 5 mL acetone (or an appropriate solvent) is added into the vial, and the vial is oscillated to dissolve the compound; thus, 1,000 ppm mother liquid is obtained. 1 mL mother liquid is weighed and added into a 100 mL beaker filled with 89 mL water, 10 mosquito larvae in the early stage of the 4th instar together with 10 mL feeding solution are poured into the beaker; thus, the concentration of the pesticide solution is 10 ppm (the pesticide solutions with other concentrations are attained by diluting the mother liquid by corresponding times). […] Water solution that contains 0.5 mL test solvent is used as a blank sample.

[6] = 50 mg/kg, inhibition of colony diameter

| Compound | inhibition at 50 mg/kg (Watermelon anthracnose) | mortality at 600 mg/kg (Maize borers) | mortality at 600 mg/kg (Cotton bollworms) | inhibition of growth at 50 mg/kg [1] | inhibition at 50 mg/kg (Tomato early blight) | inhibition at 50 mg/kg (Wheat head blight) | Mortalities (%) Armyworms (Armyworms) | inhibition at 50 mg/kg (Rice sheath blight) | inhibition at 50 mg/kg (Wheat sheath blight) | inhibition of growth at 50 mg/kg (Potato late blight) | mortality at 5 mg/kg [2] | mortality at 10 mg/kg [2] | mortality at 100 mg/kg [2] | mortality at 600 mg/kg [2] | inhibition at 50 mg/kg (Apple ring rot) | inhibition of growth at 50 mg/kg [3] | inhibition of growth at 50 mg/kg (Sclerotinia rot of colza) | inhibition at 50 mg/kg [4] | inhibition of growth at 50 mg/kg (Cucumber fusarium wilt) | mortality at 2 mg/kg [5] | also measured |
| --- | --- | --- | --- | --- | --- | --- | --- | --- | --- | --- | --- | --- | --- | --- | --- | --- | --- | --- | --- | --- | --- |
| CC1=NNC(=O)N(NS(=O)(=O)c2ccccc2)C1 [Ia-9, N-(6-methyl-3-oxo-2,3-dihydro-1,2,4-triazin-4(5H)-yl)-benzenesulfonamide] | 12.5% | 25% | 30% | 15.8% | 9.5% | 0% | 35% | 50.8% | 40.9% | 22.2% | 30% | 100% | 100% | 100% | 24.1% | 26.5% | 40% | 12.5% | 0% | 10% | insecticidal activity against aphides compared with pymetrozine [2]: equivalent to the insecticidal activity of pymetrozine; inhibition at 50 mg/kg (Rice bakanae disease): 22.2%; mortality at 5 mg/kg [5]: 80%; mortality at 10 mg/kg [5]: 100% |
| CC1=NNC(=O)N(NS(=O)(=O)c2ccccc2C)C1 [Ia-10, 2-methyl-N-(6-methyl-3-oxo-2,3-dihydro-1,2,4-triazin-4(5H)-yl)-benzenesulfonamide] | 39.2% | 40% | 50% | 4% | 9% | 13.5% | 40% | 17.4% | 14.3% | 18.7% | 90% | 100% | 100% | 100% | 10.8% | 9.4% | 21% | 37.5% | 5.9% | 40% | mortality at 2.5 mg/kg [2]: 25%; inhibition at 50 mg/kg (Rice bakanae disease; [6]): 13.8%; mortality at 5 mg/kg [5]: 100%; mortality at 10 mg/kg [5]: 100% |
| CC1=NNC(=O)N(NS(=O)(=O)c2cccc(C)c2)C1 [Ia-11, 3-methyl-N-(6-methyl-3-oxo-2,3-dihydro-1,2,4-triazin-4(5H)-yl)-benzenesulfonamide] | 36.1% | 15% | 20% | 8% | 1.5% | 2.7% | 20% | 16.3% | 14.3% | 9.3% | 80% | 100% | 100% | 100% | 6.8% | 27.8% | 26.3% | 18.7% | 8.8% | 20% | mortality at 2.5 mg/kg [2]: 15%; inhibition at 50 mg/kg (Rice bakanae disease; [6]): 10.3%; mortality at 5 mg/kg [5]: 100%; mortality at 10 mg/kg [5]: 100% |
| CC1=NNC(=O)N(NS(=O)(=O)c2c(C)cc(C)cc2C)C1 [Ia-13, 2,4,6-trimethyl-N-(6-methyl-3-oxo-2,3-dihydro-1,2,4-triazin-4(5H)-yl)-benzenesulfonamide] | 24.6% | 45% | 30% | 12% | 9% | 16.2% | 65% | 11.6% | 4.3% | 25% | 60% | 100% | 100% | 100% | 10.8% | 22.2% | 21% | 28.1% | 0% | 20% | mortality at 2.5 mg/kg [2]: 10%; inhibition at 50 mg/kg (Rice bakanae disease; [6]): 13.8%; mortality at 5 mg/kg [5]: 100%; mortality at 10 mg/kg [5]: 100% |
| COc1ccc(S(=O)(=O)NN2CC(C)=NNC2=O)cc1 [Ia-14, 4-methoxy-N-(6-methyl-3-oxo-2,3-dihydro-1,2,4-triazin-4(5H)-yl)-benzenesulfonamide] | 26.2% | 0% | 0% | 12% | 13.4% | 16.2% | 0% | 11.6% | 21.7% | 3.1% | 100% | 100% | 100% | 100% | 33.8% | 13.9% | 15.8% | 9.3% | 8.8% | 10% | mortality at 2.5 mg/kg [2]: 35%; inhibition at 50 mg/kg (Rice bakanae disease; [6]): 10.3%; mortality at 5 mg/kg [5]: 95%; mortality at 10 mg/kg [5]: 100% |
| CC1=NNC(=O)N(NS(=O)(=O)c2ccc(C(C)(C)C)cc2)C1 [Ia-15, 4-tert-butyl-N-(6-methyl-3-oxo-2,3-dihydro-1,2,4-triazin-4(5H)-yl)-benzenesulfonamide] | 14.7% | 45% | 40% | 12% | 20.9% | 13.5% | 60% | 17.4% | 9.3% | 9.7% | 85% | 100% | 100% | 100% | 16.2% | 5.6% | 15.8% | 9.3% | 8.8% | 40% | mortality at 2.5 mg/kg [2]: 10%; inhibition at 50 mg/kg (Rice bakanae disease; [6]): 24.1%; mortality at 5 mg/kg [5]: 100%; mortality at 10 mg/kg [5]: 100% |
| CC1=NNC(=O)N(NS(=O)(=O)c2ccccc2F)C1 [Ia-16, 2-fluoro-N-(6-methyl-3-oxo-2,3-dihydro-1,2,4-triazin-4(5H)-yl)-benzenesulfonamide] | 8.2% | 15% | 10% | 8% | 13.4% | 10.8% | 10% | 11.6% | 14.3% | 3.1% | 30% | 90% | 100% | 100% | 17.6% | 13.9% | 15.8% | 0% | 2.9% | 30% | insecticidal activity against aphides compared with pymetrozine [2]: equivalent to the insecticidal activity of pymetrozine; inhibition at 50 mg/kg (Rice bakanae disease; [6]): 27.6%; mortality at 5 mg/kg [5]: 100%; mortality at 10 mg/kg [5]: 100% |
